1 compound from the NIST ThermoML archive (doi:10.1016/j.tca.2008.10.019) can be followed below.

Numbers after ± are expanded uncertainties.

The conditions of data set [1]: Crystal; DTA.
Data set [2] can be described thus: Molar enthalpy of transition or fusion. To be noted: Crystal; DSC.

For `NC(=O)CC(N)=O` [1,3-propanedioic acid, diamide], the Normal melting temperature in data set [1] was found to be 170.00 ± 0.5 °C. The “Molar enthalpy of transition or fusion” value in data set [2] is 5.55 ± 0.172 kcal/mol.
